US5728563A, “Cyclic nucleotide phosphodiesterase and a method for production thereof” (Taisho Pharmaceutical Co., Ltd., priority 1993, dated 1998)
Entries after “also recorded” stand apart in the source; their conditions may differ.

Legend:
Type in all cases: biochemical
[1] = tested on: cyclic nucleotide phosphodiesterase (the enzyme of the present invention) isolated from rat cerebral cortex; assay: Effects of inhibitors on the enzymatic activity (two-step assay, cAMP hydrolysis); settings: for inhibition compared to PDEI, PDEIII or PDEIV: comparison with the known isozyme that the inhibitor acts on; for IC50: enzymatic activity in the absence of inhibitor made 100%
Experimental: The activity of the enzyme of the present invention was determined by the two-step assay (Masuoka et al., Biochem. Biophys. Res. Commun., 169, 315-322, 1990).
Using various inhibitors which are known to inhibit the activity of PDEI, III or IV, the enzymatic activity of the enzyme of the present invention was measured by varying the concentration of these inhibitors.
(§1) The mixture is reacted at 30° C. Ten minutes after, the reaction mixture is put in a heat bath of 100° C. to terminate the reaction in 5 minutes. That is, the enzyme of the present invention is inactivated by heating at 100° C. A test tube charged with the reaction mixture is then ice-cooled. Next, 50 μg of snake venom, which contains 5'-nucleotidase, is added to and reacted with the reaction mixture at 30° C. for 10 minutes. […] 5'-AMP, which is then with 5'-nucleotidase in snake venom to form [8-^3 H] adenosine. After 4 ml of water is added to this reaction mixture, the mixture is adsorbed onto a column packed with cation exchange resin (AG50 WX4, Bio-Rad). After thoroughly rinsing, the reaction product [8-^3 H] adenosine is eluted with 1.5 ml 3N NH4 OH. The radioactivity of the eluted [8-^3 H] adenosine is measured to determine the enzymatic activity of the present invention.
The enzymatic activity of the enzyme of the present invention was measured by varying the concentrations of various inhibitors. […] In more detail, during the reaction with the enzyme of the present invention in assaying for the enzymatic activity described in Example, an inhibitor having various concentrations was further added to the reaction mixture to determine the enzymatic activity.

[2] = tested on: cyclic nucleotide phosphodiesterase (the enzyme of the present invention) isolated from rat cerebral cortex; assay: Effect of metal ions on the enzymatic activity
Experimental: as §1

[3] = tested on: cyclic nucleotide phosphodiesterase (the enzyme of the present invention) isolated from rat cerebral cortex; assay: Substrate specificity, Km by double reciprocal plots; settings: substrate varied 0.06 μM to 100 μM
[4] = tested on: cyclic nucleotide phosphodiesterase (the enzyme of the present invention) isolated from rat cerebral cortex; assay: Effect of activators (calcium-calmodulin, cGMP) on cAMP hydrolysis; settings: 0.4 μg/ml calmodulin plus 0.2 mM calcium chloride versus 2 mM EGTA; or 10 μM cGMP
Experimental: Effects on the enzyme of the present invention were analyzed by adding 0.4 μg/ml calmodulin purified from bovine brain and 0.2 mM calcium chloride.
The mixture is reacted at 30° C. Ten minutes after, the reaction mixture is put in a heat bath of 100° C. to terminate the reaction in 5 minutes. That is, the enzyme of the present invention is inactivated by heating at 100° C. A test tube charged with the reaction mixture is then ice-cooled. Next, 50 μg of snake venom, which contains 5'-nucleotidase, is added to and reacted with the reaction mixture at 30° C. for 10 minutes. […] After 4 ml of water is added to this reaction mixture, the mixture is adsorbed onto a column packed with cation exchange resin (AG50 WX4, Bio-Rad). After thoroughly rinsing, the reaction product [8-^3 H] adenosine is eluted with 1.5 ml 3N NH4 OH. The radioactivity of the eluted [8-^3 H] adenosine is measured to determine the enzymatic activity of the present invention.

CCCCOc1cc(CC2CNC(=O)N2)ccc1OC (centres unmarked) [Ro20-1724, 4-(3-buthoxy-4-methoxybenzyl)-2-imidazolidinone]
inhibition compared to PDEI, PDEIII or PDEIV [1]: less inhibited | IC50 [1]: > 300 µM

CC(=O)Nc1ccc(-c2c[nH]c(=O)cn2)cc1 [SK&F94120, 5-(4-acetamidophenyl)pyrazin-1H-one]
inhibition compared to PDEI, PDEIII or PDEIV [1]: not inhibited | IC50 [1]: > 300 µM

COc1ccc(C2CNC(=O)C2)cc1OC1CCCC1 (centres unmarked) [rolipram]
inhibition compared to PDEI, PDEIII or PDEIV [1]: less inhibited | IC50 [1]: > 300 µM

[Cu+2] [Cu^2+]
effect as metal cation / cofactor for the enzymatic reaction [2]: no ability as a cofactor

[Ni+2] [Ni^2+]
effect as metal cation / cofactor for the enzymatic reaction [2]: no ability as a cofactor

[Ca+2] [Ca^2+]
effect as metal cation / cofactor for the enzymatic reaction [2]: no ability as a cofactor

[Mn+2] [Manganese]
effect as metal cation / cofactor for the enzymatic reaction [2]: relatively stimulatory effect

COc1ccc(Cc2nccc3cc(OC)c(OC)cc23)cc1OC [papaverine]
Ki ([1]; Dixon plots, varying cAMP and papaverine concentrations, read-out: inhibition constant (Ki value)): 0.036 µM

CC(C)Cn1c(=O)n(C)c(=O)c2[nH]cnc21 [IBMX, 3-isobutyl-1-methylxanthine]
IC50 [1]: 26.5 ± 2.5 µM

COC(=O)C1=C(C)NC(C)=C(C(=O)OCCN(C)Cc2ccccc2)C1c1cccc([N+](=O)[O-])c1 (centres unmarked) [nicardipine]
inhibition compared to PDEI, PDEIII or PDEIV [1]: less inhibited | IC50 [1]: > 300 µM | IC50 ([1]; unit inferred): > 300 µM

[Ba+2] [Ba^2+]
effect as metal cation / cofactor for the enzymatic reaction [2]: no ability as a cofactor

[Co+2] [Co^2+]
concentrations with inhibitory effect [2]: above 100 μM | concentrations with stimulatory effect [2]: less than 100 μM

[Cl-].[Cl-].[Mg+2] [Magnesium, magnesium chloride]
concentration at which the enzyme was activated [2]: 1 µM | concentration at which the maximum effect/activity was observed [2]: over 5 mM | effect as metal cation / cofactor for the enzymatic reaction [2]: most efficient metal cation

Nc1nc2c(ncn2[C@@H]2O[C@@H]3COP(=O)(O)O[C@H]3[C@H]2O)c(=O)[nH]1 [cGMP, cyclic guanosine 3',5'-monophosphate]
Km [3]: 1.78 µM | activation of the enzyme / sensitivity of the enzymatic activity [4]: insensitive; also recorded: not activated

[Zn+2] [Zn^2+]
effect as metal cation / cofactor for the enzymatic reaction [2]: no ability as a cofactor

O=C1CCc2cc(OCCCCc3nnnn3C3CCCCC3)ccc2N1 [cilostazol]
inhibition compared to PDEI, PDEIII or PDEIV [1]: not inhibited | IC50 [1]: > 300 µM
